One molecule from ChEMBL document CHEMBL4825710, “Antibacterial activity of β-sitosterol isolated from the leaves of Odontonema strictum (Acanthaceae)” (2021) can be followed below.

A word on the MBC: it is the smallest concentration meeting the test's criterion for killing. What is called MFC is the smallest concentration meeting the test's criterion for killing the fungus. What is called MIC is the lowest concentration that inhibits growth of the organism.

In experiment [1] the test system is Staphylococcus aureus. Briefly: Antibacterial activity against Staphylococcus aureus assessed as bacterial growth inhibition. In kind it is functional.
The test system of experiment [2] is Staphylococcus aureus. Briefly: Antibacterial activity against Staphylococcus aureus assessed as bacterial growth inhibition at 12.5 ug/ml. It is filed as functional, organism-based. The conditions noted are these: dose 12.5 µg/ml.
For experiment [3], the system named is Bacillus subtilis. Briefly: Antibacterial activity against Bacillus subtilis assessed as bacterial growth inhibition. It is filed as functional.
Experiment [4] relates to Staphylococcus aureus. Put plainly: Bactericidal activity against Staphylococcus aureus. It is filed as functional.
Experiment [5] relates to Shigella dysenteriae. Put plainly: Antibacterial activity against Shigella dysenteriae assessed as bacterial growth inhibition. It is filed as functional.
Experiment [6] has as its system Salmonella typhi. Briefly: Antibacterial activity against Salmonella typhi assessed as bacterial growth inhibition at 12.5 ug/ml. It is filed as functional, organism-based. To be noted: Salmonella enterica subsp. enterica serovar Typhi; dose 12.5 µg/ml.
The subject of experiment [7] is Pseudomonas aeruginosa. Put plainly: Antibacterial activity against Pseudomonas aeruginosa assessed as bacterial growth inhibition. In kind it is functional.
Experiment [8] relates to Proteus vulgaris. Briefly: Antibacterial activity against Proteus vulgaris assessed as bacterial growth inhibition at 12.5 ug/ml. In kind it is functional, organism-based. To be noted: dose 12.5 µg/ml.
Experiment [9] deals with Salmonella typhi. Briefly: Antibacterial activity against Salmonella typhi assessed as bacterial growth inhibition. The conditions noted are these: Salmonella enterica. In kind it is functional, Salmonella enterica subsp. enterica serovar Typhi.
For experiment [10], the system named is Proteus vulgaris. Put plainly: Antibacterial activity against Proteus vulgaris assessed as bacterial growth inhibition. In kind it is functional.
Experiment [11] relates to Candida albicans. Briefly: Antifungal activity against Candida albicans assessed as fungal growth inhibition. It is filed as functional.
Experiment [12] relates to Streptococcus pyogenes. Put plainly: Antibacterial activity against Streptococcus pyogenes assessed as bacterial growth inhibition at 12.5 ug/ml. It is filed as functional, organism-based. The conditions noted are these: dose 12.5 µg/ml.
Another experiment deals with Corynebacterium. Put plainly: Antibacterial activity against Corynebacterium assessed as bacterial growth inhibition at 12.5 ug/ml. In kind it is functional, organism-based. To be noted: dose 12.5 µg/ml.
In experiment [13] the test system is Shigella dysenteriae. Briefly: Antibacterial activity against Shigella dysenteriae assessed as bacterial growth inhibition at 12.5 ug/ml. In kind it is functional, organism-based. To be noted: dose 12.5 µg/ml.
The subject of experiment [14] is Candida albicans. Put plainly: Antifungal activity against Candida albicans assessed as fungal growth inhibition at 12.5 ug/ml. It is filed as functional, organism-based. The conditions noted are these: dose 12.5 µg/ml.
For experiment [15], the system named is Bacillus subtilis. Put plainly: Antibacterial activity against Bacillus subtilis assessed as bacterial growth inhibition at 12.5 ug/ml. The conditions noted are these: dose 12.5 µg/ml. It is filed as functional, organism-based.
The subject of the next experiment is Corynebacterium ulcerans. Briefly: Antibacterial activity against Corynebacterium ulcerans assessed as bacterial growth inhibition. It is filed as functional.
For experiment [16], the system named is Streptococcus pyogenes. Put plainly: Antibacterial activity against Streptococcus pyogenes assessed as bacterial growth inhibition. It is filed as functional.
Experiment [17] relates to Staphylococcus aureus. Put plainly: Antibacterial activity against Staphylococcus aureus assessed as inhibition of bacterial growth measured after 24 hrs by serial dilution method. It is filed as functional.
Experiment [18] concerns Pseudomonas aeruginosa. Briefly: Antibacterial activity against Pseudomonas aeruginosa assessed as bacterial growth inhibition at 12.5 ug/ml. It is filed as functional, organism-based. The conditions noted are these: dose 12.5 µg/ml.

Values after ≈ are worked out from the molar mass of the structure shown. Active and inactive are the calls of the source.

On to `CC[C@H](CC[C@@H](C)[C@H]1CC[C@H]2[C@@H]3CC=C4C[C@@H](O)CC[C@]4(C)[C@H]3CC[C@]12C)C(C)C` [BETA-SITOSTEROL], for which the MBC with Staphylococcus aureus [1] came to 50 µg/mL (≈ 121 µM); with Bacillus subtilis [3], 25 µg/mL (≈ 60.3 µM); against Staphylococcus aureus [4] it was 2210 µg/mL (≈ 5320 µM); with Shigella dysenteriae [5], 50 µg/mL (≈ 121 µM); in the experiment with Pseudomonas aeruginosa [7], 50 µg/mL (≈ 121 µM); in the experiment on Salmonella typhi [9], 25 µg/mL (≈ 60.3 µM). Besides, the MBC in the experiment on Proteus vulgaris [10] stood at 50 µg/mL (≈ 121 µM); in the experiment on Corynebacterium ulcerans, 25 µg/mL (≈ 60.3 µM); in the experiment on Streptococcus pyogenes [16] it was 50 µg/mL (≈ 121 µM). Moreover, the “growth inhibition (GI)” value with Staphylococcus aureus [2], in the experiment on Salmonella typhi [6], with Proteus vulgaris [8], in the experiment with Streptococcus pyogenes [12], in the experiment on Corynebacterium and in the experiment with Shigella dysenteriae [13] was “Active” each time. In addition, the “growth inhibition (GI)” value in the experiment with Candida albicans [14], with Bacillus subtilis [15] and in the experiment on Pseudomonas aeruginosa [18] was “Active” throughout. Further, the MFC with Candida albicans [11] was 50 µg/mL (≈ 121 µM). Moreover, the MIC in the experiment with Staphylococcus aureus [17] stood at 1240 µg/mL (≈ 2990 µM).
